These results are taken from patent US20130129595A1 (SOLVAY SA, priority 2010, published 2013).

This data set in a line: Solubility of LiPO2F2, LiF and LiPF6 in organic solvents.

For `[F-].[Li+]` [LiF], the “Solubility (in words)” value runs as follows: (in acetone) “very low solubility”; (in aprotic organic solvents) “only very sparingly soluble”; (in dimethoxyethane) “at most in negligible amounts”; (in dimethyl carbonate and propylene carbonate) “essentially insoluble”.

Turning to `F[P-](F)(F)(F)(F)F.[Li+]` [LiPF6], the “Solubility (in words)” value (in aprotic organic solvents) was “comparably good solubility”.
